Source: the NIST ThermoML archive (doi:10.1016/j.jct.2019.03.023)
± gives the expanded uncertainty stated by the source.

Assay: molar heat capacity at constant volume
Settings: Fluid (supercritical or subcritical phases), Vacuum adiabatic calorimetry

CC(C)O [propan-2-ol]
Settings	molar heat capacity at constant volume [J/K/mol]
501.94 K, Mass density=343.1 kg/m3	317.72 ± 9.6
502.03 K, Mass density=266.3 kg/m3	345.37 ± 10
502.04 K, Mass density=343.1 kg/m3	315.2 ± 9.4
502.13 K, Mass density=266.3 kg/m3	347.59 ± 10
502.13 K, Mass density=343.1 kg/m3	309.67 ± 9.3
502.22 K, Mass density=266.3 kg/m3	350.23 ± 11
502.22 K, Mass density=343.1 kg/m3	314.54 ± 9.4
502.31 K, Mass density=266.3 kg/m3	348.13 ± 10
502.32 K, Mass density=343.1 kg/m3	312.25 ± 9.4
502.41 K, Mass density=266.3 kg/m3	351.2 ± 11
502.41 K, Mass density=343.1 kg/m3	317.66 ± 9.6
502.5 K, Mass density=266.3 kg/m3	350.29 ± 11
502.5 K, Mass density=343.1 kg/m3	312.07 ± 9.4
502.6 K, Mass density=266.3 kg/m3	350.29 ± 11
502.6 K, Mass density=343.1 kg/m3	310.39 ± 9.3
503.92 K, Mass density=329.2 kg/m3	322.05 ± 9.7
504.02 K, Mass density=329.2 kg/m3	325.72 ± 9.8
504.11 K, Mass density=329.2 kg/m3	323.31 ± 9.7
504.3 K, Mass density=329.2 kg/m3	318.86 ± 9.6
504.37 K, Mass density=281.9 kg/m3	348.13 ± 10
504.46 K, Mass density=281.9 kg/m3	351.02 ± 11
504.5 K, Mass density=329.2 kg/m3	325.72 ± 9.8
504.56 K, Mass density=234.3 kg/m3	386.83 ± 12
504.56 K, Mass density=281.9 kg/m3	346.57 ± 10
504.59 K, Mass density=329.2 kg/m3	319.65 ± 9.6
504.65 K, Mass density=234.3 kg/m3	381.48 ± 11
504.65 K, Mass density=281.9 kg/m3	351.08 ± 11
504.74 K, Mass density=234.3 kg/m3	386.35 ± 12
504.74 K, Mass density=281.9 kg/m3	346.63 ± 10
504.84 K, Mass density=234.3 kg/m3	392.36 ± 12
504.84 K, Mass density=281.9 kg/m3	355.64 ± 11
504.93 K, Mass density=281.9 kg/m3	355.64 ± 11
504.97 K, Mass density=234.3 kg/m3	391.52 ± 12
504.98 K, Mass density=329.2 kg/m3	328.36 ± 9.9
505.02 K, Mass density=281.9 kg/m3	349.27 ± 10
505.08 K, Mass density=329.2 kg/m3	326.92 ± 9.8
505.12 K, Mass density=234.3 kg/m3	387.07 ± 12
505.12 K, Mass density=281.9 kg/m3	354.2 ± 11
505.21 K, Mass density=234.3 kg/m3	382.87 ± 11
505.21 K, Mass density=281.9 kg/m3	355.76 ± 11
505.21 K, Mass density=324.5 kg/m3	333.29 ± 10
505.27 K, Mass density=329.2 kg/m3	325.96 ± 9.8
505.3 K, Mass density=234.3 kg/m3	387.13 ± 12
505.3 K, Mass density=324.5 kg/m3	339.78 ± 10
505.37 K, Mass density=329.2 kg/m3	325.35 ± 9.8
505.4 K, Mass density=234.3 kg/m3	387.13 ± 12
505.49 K, Mass density=288.99 kg/m3	349.87 ± 11
505.58 K, Mass density=288.99 kg/m3	350.77 ± 11
505.58 K, Mass density=324.5 kg/m3	333.05 ± 10
505.68 K, Mass density=288.99 kg/m3	343.14 ± 10
505.68 K, Mass density=324.5 kg/m3	338.82 ± 10
505.77 K, Mass density=288.99 kg/m3	350.47 ± 11
505.77 K, Mass density=324.5 kg/m3	335.27 ± 10
505.77 K, Mass density=343.1 kg/m3	323.67 ± 9.7
505.86 K, Mass density=288.99 kg/m3	346.63 ± 10
505.86 K, Mass density=324.5 kg/m3	337.13 ± 10
505.86 K, Mass density=343.1 kg/m3	325.29 ± 9.8
505.96 K, Mass density=288.99 kg/m3	350.53 ± 11
505.96 K, Mass density=324.5 kg/m3	332.09 ± 10
505.96 K, Mass density=343.1 kg/m3	323.97 ± 9.7
506.05 K, Mass density=288.99 kg/m3	354.32 ± 11
506.05 K, Mass density=324.5 kg/m3	336.65 ± 10
506.05 K, Mass density=343.1 kg/m3	326.26 ± 9.8
506.14 K, Mass density=288.99 kg/m3	350.59 ± 11
506.14 K, Mass density=324.5 kg/m3	342.42 ± 10
506.14 K, Mass density=343.1 kg/m3	328.36 ± 9.9
506.24 K, Mass density=288.99 kg/m3	350.65 ± 11
506.24 K, Mass density=324.5 kg/m3	340.02 ± 10
506.24 K, Mass density=343.1 kg/m3	327.04 ± 9.8
506.33 K, Mass density=274 kg/m3	361.17 ± 11
506.33 K, Mass density=288.99 kg/m3	346.33 ± 10
506.33 K, Mass density=324.5 kg/m3	336.41 ± 10
506.33 K, Mass density=343.1 kg/m3	326.44 ± 9.8
506.42 K, Mass density=274 kg/m3	362.97 ± 11
506.42 K, Mass density=343.1 kg/m3	329.92 ± 9.9
506.43 K, Mass density=329.2 kg/m3	328.06 ± 9.9
506.52 K, Mass density=274 kg/m3	361.05 ± 11
506.52 K, Mass density=288.99 kg/m3	351.92 ± 11
506.52 K, Mass density=324.5 kg/m3	341.04 ± 10
506.52 K, Mass density=343.1 kg/m3	328.3 ± 9.9
506.53 K, Mass density=329.2 kg/m3	330.64 ± 9.9
506.61 K, Mass density=274 kg/m3	365.62 ± 11
506.61 K, Mass density=288.99 kg/m3	355.52 ± 11
506.61 K, Mass density=343.1 kg/m3	329.98 ± 9.9
506.62 K, Mass density=329.2 kg/m3	335.93 ± 10
506.7 K, Mass density=288.99 kg/m3	357.63 ± 11
506.7 K, Mass density=324.5 kg/m3	343.74 ± 10
506.72 K, Mass density=329.2 kg/m3	332.69 ± 10
506.8 K, Mass density=288.99 kg/m3	349.21 ± 10
506.8 K, Mass density=343.1 kg/m3	329.08 ± 9.9
506.82 K, Mass density=329.2 kg/m3	332.27 ± 10
506.89 K, Mass density=288.99 kg/m3	354.98 ± 11
